Measured values from patent US12643867B2, “Compositions and uses thereof” (University of Virginia Patent Foundation, priority 2017, dated 2026).

System: recombinant DGKs and native kinases in HEK293T proteomes
Experiment: Quantitative chemical proteomics, summary over kinases
Format: binding
Details: for number of kinase targets that show SR≥2: recombinant DGKs and native kinases
Description: Proteomes were diluted to 2 mg/ml in kinase buffer. The light and heavy proteomes (0.5 mg, 250 μL total reaction volume) were pre-treated with vehicle or compound, respectively (5 μL, DMSO (light) or 50× stock in DMSO (heavy)), mixed gently, and incubated at 25° C. for 30 min. […] After incubation, matched light and heavy proteomes were transferred and mixed in a 1:1 ratio in a two-dram vial containing 4:1:3 MeOH/CHCl3/H2O (2 mL MeOH, 500 AL CHCl3, 1.5 mL H2O) for extraction of proteins to remove excess probe, quickly vortexed, and centrifuged at 1,400×g for 3 min to pellet protein. Organic and aqueous layers were removed using a Pasteur pipette, and the protein pellet was transferred to a screw-top tube in 600 μL MeOH. A second extraction was performed by adding CHCl3 (150 μL) and H2O (600 μL) to each sample, vortexed, and centrifuged at 1,400×g for 3 min to pellet protein. Organic and aqueous layers were removed by pipetting. MeOH added to pellet (600 μL) and pellets were re-suspended by sonication (3×1 sec pulse, 20% amplitude) for a final extraction. Samples were then centrifuged at 17,000×g for 5 min to pellet protein and MeOH was removed by pipetting. The pellets were re-suspended in 10 M urea/25 mM ammonium bicarbonate ([…]), brought to a final volume of 1 mL with 25 mM ammonium bicarbonate, reduced with 10 mM DTT for 15 min at 65° C. allowed to cool, and then alkylated with 40 mM iodoacetamide for 30 min at 25° C. in the dark. To desalt the samples, each was transferred to a two-dram glass vial, and to the vial 4:1:2 MeOH/CHCl3/H2O (2 mL MeOH, 500 AL CHCl3, 1 mL H2O) was added. The vials were vortexed quickly, spun at 1.400×g for 3 min to pellet protein, and aqueous and organic layers were removed using a Pasteur pipette. The resulting protein pellet was transferred to a screw-top tube in 600 μL MeOH, and then CHCl3 (150 μL) and HO (600 μL) were added to extract protein a second time. The samples were vortexed quickly, centrifuged at 1,400×g to pellet protein, and the aqueous and organic layers were removed by pipetting. Resulting protein pellet was suspended in MeOH (600 μL) via sonication (3×1 sec pulse, 20% amplitude), centrifuged at 17,000×g for 5 min to pellet protein, and MeOH removed by pipetting. Protein pellets were then re-suspended in 25 mM ammonium bicarbonate (500 μL) and digested with 7.5 μg Trypsin/Lys-C(Promega, 15 μL, 0.5 μg/μL) for 3 h at 37° C. Avidin-agarose beads (Thermo Scientific Pierce, 100 AL aliquot per sample) were washed three times by adding 10 mL DPBS, centrifuged at 1,400×g for 1 min, and decanting. This wash step was repeated for a total of 3 times. Digested protein samples were mixed with washed avidin beads (100 μL) and brought to a volume of 5.5 mL with DPBS in a 15 mL conical and rotated for 1 h to enrich samples for the covalent desthiobiotin modification. The beads were washed with 25 mM ammonium bicarbonate (3× with 10 mL, centrifuge at 1,400×g for 3 min, decant) and then H2O (3× with 10 mL, centrifuge at 1,400×g for 3 min, decant). Washed beads were then transferred to a low-bind microfuge tube, centrifuged at 1,400×g for 3 min, allowed to rest for 1 min to settle beads, and then excess H2O was removed carefully using a gel-loading pipette tip. To elute peptides, 100 μL of elution buffer (50% acetonitrile, ACN; 0.1% formic acid) was added to each sample and incubated for 3 min. Beads were spun down at 1.400×g for 3 min, allowed to rest for 1 min to settle beads, and then 75 μL of peptide-containing supernatant was removed carefully using a gel-loading pipette tip and transferred to a new low bind centrifuge tube. This step was repeated two more times with 75 μL of elution buffer and all eluent were collected into the same centrifuge tube (˜225 μL total). Peptides were dried on a speed vacuum, resulting peptide samples acidified in 5% (v/v) formic acid, and stored at −80° C. until analysis.
The peptide samples were analyzed by liquid chromatography-mass spectrometry. […]

| SMILES | competition at probe-binding sites (100 μM) | average SILAC ratio at all detected probe-modified sites of other DGK subtypes (1 mM) | kinase targets with potent activity (SR≥5) (all detectable kinases) | number of kinase targets that show SR≥2 | SILAC ratio at all binding sites detected, other DGK isoforms (100 μM) |
| --- | --- | --- | --- | --- | --- |
| O=C(c1ccc(F)cc1)C1CCN(CCn2c(=O)[nH]c3ccccc3c2=O)CC1 [Ketanserin] | negligible competition at all probe-binding sites | – | – | – | – |
| Fc1ccc(C(=C2CCNCC2)c2ccc(F)cc2)cc1 [RF001, 4-(Bis(4-fluorophenyl)methylene) piperidine] | – | ~1 | a single kinase target | 3 | – |
| Cc1nc2sccn2c(=O)c1CCN1CCC(=C(c2ccc(F)cc2)c2ccc(F)cc2)CC1 [Ritanserin] | – | – | – | 25 | < 2 |
